TGI data for 14 molecules are collected here from PubChem BioAssay (NCI).

Some test systems named below: HCT-15 colon; OVCAR-3 ovarian; IGROV1 ovarian; NCI-H522 lung; K-562 leukemia; MDA-MB-435; TK-10 renal; SNB-19 CNS; SF-295 CNS; MALME-3M melanoma.
Common to all, as to assay: inhibition of tumour cell growth, NCI panel, 48 h

SMILES strings stand for the structures.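 Results reflect a 48-hour exposure of cells in 96-well plates to compound at five concentrations. The concentration for full growth arrest is given as TGI.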

For the molecule `O=C(NC1(C(=O)O)CCCC1)c1ccccc1`, the TGI in the assay with HCT-15 colon, in the assay on OVCAR-3 ovarian, in the assay on IGROV1 ovarian, with NCI-H522 lung, with K-562 leukemia and in the assay on MDA-MB-435 was more than 100 µM throughout. Besides, the TGI in the assay on TK-10 renal, with SNB-19 CNS and with SF-295 CNS was more than 100 µM each time.

As to `Cc1cc(C)nc(NS(=O)(=O)c2ccc(NC(=O)c3cc([N+](=O)[O-])cc([N+](=O)[O-])c3)cc2)n1`, the TGI with HCT-15 colon was more than 100 µM; in the assay with MALME-3M melanoma, more than 100 µM; in the assay with OVCAR-3 ovarian it was 98.4 µM; in the assay with IGROV1 ovarian, more than 100 µM; with K-562 leukemia, more than 100 µM; with MDA-MB-435, more than 100 µM. Also, the TGI in the assay with TK-10 renal and with SNB-19 CNS was more than 100 µM throughout.

With `C=CCCC(=O)C(=[N+]=[N-])C(=O)CCC(=O)c1ccccc1`, the TGI with HCT-15 colon, in the assay on MALME-3M melanoma, with OVCAR-3 ovarian, in the assay on IGROV1 ovarian, in the assay on K-562 leukemia and with MDA-MB-435 was more than 10 µM each time. For the same molecule, the TGI in the assay on TK-10 renal, in the assay with SNB-19 CNS and with SF-295 CNS was more than 10 µM each time.

As to `C=CCN(CCN(CC=C)S(=O)(=O)c1ccc(C)cc1)S(=O)(=O)c1ccc(C)cc1`, the TGI with HCT-15 colon, with OVCAR-3 ovarian, in the assay on NCI-H522 lung, in the assay with K-562 leukemia, with MDA-MB-435 and in the assay on TK-10 renal was more than 100 µM each time. Besides, the TGI with SNB-19 CNS and with SF-295 CNS was more than 100 µM each time.

Regarding `O=c1[nH]nc(-c2ccc(F)cc2)cc1-c1ccccc1`, the TGI with HCT-15 colon, in the assay with MALME-3M melanoma, in the assay with OVCAR-3 ovarian, with IGROV1 ovarian, in the assay on K-562 leukemia and in the assay on MDA-MB-435 was more than 100 µM in each case. In addition, the TGI with TK-10 renal, with SNB-19 CNS and with SF-295 CNS was more than 100 µM throughout.

Turning to `O=C(O)c1ccc(Nc2nc3nn(Cc4ccccc4)cc3c(=O)s2)cc1`, the TGI in the assay with HCT-15 colon, in the assay on MALME-3M melanoma, with OVCAR-3 ovarian, in the assay with IGROV1 ovarian, with NCI-H522 lung and in the assay on K-562 leukemia was more than 100 µM throughout. The TGI in the assay on TK-10 renal, in the assay with SNB-19 CNS and in the assay on SF-295 CNS was more than 100 µM each time.

With `O/N=C\C(=Nc1ccc(Cc2ccc(N=C(/C=N\O)NO)cc2)cc1)NO`, the TGI in the assay on HCT-15 colon, in the assay with MALME-3M melanoma, in the assay with OVCAR-3 ovarian, in the assay on IGROV1 ovarian, in the assay with NCI-H522 lung and in the assay with K-562 leukemia was more than 100 µM in each case. Moreover, the TGI with TK-10 renal, with SNB-19 CNS and in the assay on SF-295 CNS was more than 100 µM throughout.

Take `COc1ccc(CCN2C(=O)CC34C=CC(CC3C2=O)O4)cc1OC` (centres undefined): the TGI with HCT-15 colon, with OVCAR-3 ovarian, with IGROV1 ovarian, in the assay with K-562 leukemia, in the assay with MDA-MB-435 and in the assay on TK-10 renal was more than 100 µM in each case. The TGI with SNB-19 CNS and in the assay with SF-295 CNS was more than 100 µM throughout.

Turning to `CC(=O)O[C@H]1C(=O)[C@@]2(C)[C@H]([C@H](OC(=O)c3ccccc3)[C@]3(O)C[C@H](OC(=O)[C@H](O)[C@@H](NC(=O)c4ccc(N(C)C)cc4)c4ccccc4)C(C)=C1C3(C)C)[C@]1(OC(C)=O)CO[C@@H]1C[C@@H]2O`, the TGI was more than 50 µM with HCT-15 colon; 0.0063 µM in the assay with OVCAR-3 ovarian; more than 50 µM with IGROV1 ovarian; more than 45.1 µM with TK-10 renal; more than 50 µM in the assay with SNB-19 CNS; more than 50 µM with SF-295 CNS.

As to `C=CCn1c(-c2ccc(Cl)cc2)csc1=Nc1ccccc1OC`, the TGI was more than 100 µM in the assay with HCT-15 colon; more than 100 µM in the assay with MALME-3M melanoma; more than 100 µM in the assay with OVCAR-3 ovarian; more than 100 µM in the assay with IGROV1 ovarian; 19.4 µM in the assay on K-562 leukemia; more than 100 µM in the assay with MDA-MB-435. The values for the TGI in the assay with TK-10 renal, with SNB-19 CNS and in the assay on SF-295 CNS were more than 100 µM, more than 100 µM and more than 79.8 µM, respectively.

In the case of `C=CCn1c(=N)/c(=C(\N)O)s/c1=C1/SC(=S)N(c2ccc(C)cc2)C1=O`, the TGI in the assay on MALME-3M melanoma, with OVCAR-3 ovarian, with IGROV1 ovarian, with NCI-H522 lung, in the assay with K-562 leukemia and with TK-10 renal was more than 100 µM in each case. Also, the TGI in the assay with SNB-19 CNS and in the assay with SF-295 CNS was more than 100 µM in each case.

As for `CC(=O)NC1(C)C(C)C2CC1C(C)C2(C)C` (centres undefined), the TGI in the assay with MALME-3M melanoma, in the assay with OVCAR-3 ovarian, with IGROV1 ovarian, with NCI-H522 lung, in the assay with K-562 leukemia and in the assay on MDA-MB-435 was more than 100 µM each time. Also, the TGI in the assay with TK-10 renal, in the assay on SNB-19 CNS and in the assay on SF-295 CNS was more than 100 µM in each case.

Regarding `COc1ccc2c3c1OC1C(OC)(OC)CC4(C=C2)CN(C)CCC314` (centres undefined), the TGI with HCT-15 colon, in the assay with MALME-3M melanoma, in the assay with OVCAR-3 ovarian, with IGROV1 ovarian, with K-562 leukemia and in the assay on MDA-MB-435 was more than 100 µM each time. Also, the TGI with TK-10 renal, with SNB-19 CNS and with SF-295 CNS was more than 100 µM throughout.

In the case of `O=C(c1ccco1)N(C(=S)N1CCN(c2ccccn2)CC1)c1ccccc1`, the TGI in the assay with HCT-15 colon, in the assay on MALME-3M melanoma, with OVCAR-3 ovarian, in the assay with IGROV1 ovarian, in the assay with NCI-H522 lung and in the assay on K-562 leukemia was more than 100 µM throughout. The TGI in the assay with TK-10 renal, in the assay with SNB-19 CNS and in the assay with SF-295 CNS was more than 100 µM each time.
